According to patent US20240307420A1, “IMPROVED METHODS FOR THE USE OF PSYCHEDELICS” (TRYP Therapeutics Inc., priority 2021, published 2024):
“And” between values parts separate entries of the source, which are not always exact repeats. Equal values may be shown once.

How the values were obtained:
[1] = Plasma psilocin pharmacokinetics during and after one-hour intravenous infusion of psilocin or psilocybin; settings: for AUC(0-t): AUCT; for concentration at 0.25 h / concentration at 0.5 h / concentration at 1 h / concentration at 2 h / concentration at 4 h / concentration at 6 h / concentration at 8 h: Plasma concentration of psilocin
rats [2] = test: Head twitching response (HTR) after one-hour intravenous infusion, video recording; assay type: in vivo, Sprague Dawley rats; settings: for Time after termination of infusion up to which head twitching was observed: after one hour 10 mg/kg IV infusion
Protocol: To assess the pharmacodynamics (PD) of intravenously infused psychedelics, animal head-twitching was recorded as an indicator of achieving the dissociative state. Head twitching response (HTR) is used as a surrogate PD marker for the animals achieving or being in the dissociative or psychedelic state (for example, as described in Zhuk et al., Toxins 2015, 7, 1018-1029; Halberstadt et al., J Psychopharmacol. 2011 25(11): 1548-1561). HTR was also used to determine when the end of the dissociative state occurred following discontinuation of the IV infusion.
To assess HTR, a video monitoring system was used to record the animals in this study from discontinuation of the infusion through to the terminal sampling time point (1-hour post infusion). A camera was positioned such that the animals were visible from above. The recording was saved for review and the time of the observed head-twitching behavior, the duration of the observed behavior, and any additional atypical observations were documented.
The number of head-twitching events observed within the 60 minute time period after the one hour intravenous infusion of each of the 3 rats receiving psilocin or psilocybin, were determined from the video recordings. […] Upon termination of the IV infusion of either psilocin or psilocybin, head twitching activity subsided within 50 minutes, supporting the rapid termination of the dissociative or psychedelic, compared to previously reported termination of the dissociative state after an oral administration of psilocybin.

rats [3] = test: Head twitching response in unrestrained rats prior to, during and after 60 minute infusion (separate study); assay type: in vivo; settings: 10 mg/kg over 60 minutes IV
Protocol: In a separate study, unrestrained rats were infused with 10 mg/kg psilocybin over a 60 minute period and head twitching response (HTR) was recorded prior to during and after IV administration. HTR was consistently observed in all tested rats, within 5 minutes after initiation of the infusion, and persisted during the 60-minute infusion period. HTR was discontinued in the animals soon after the termination of the infusion, generally within 30 minutes after the termination of the infusion. The results of the HTR supported the more rapid achievement of the dissociative or psychedelic state, coincident with the rise in systemic plasma psilocin levels, and rapid exit from the dissociative or psychedelic state after the termination of infusion (e.g., as assessed in Example 1).

[4] = single oral administration of psilocybin at 0.225 mg/kg; cited from earlier work
rats [5] = test: Hot Plate assay (HPA) withdrawal latency in formalin-induced rat pain model; assay type: in vivo; settings: 52.5° C. hot plate; single 10 mg/kg IV administration
Text: Chronic pain in rats was induced by injection of formalin into the hind paw. The rats subsequently were intravenously administered psilocybin, and assessed for changes in pain perception over an extended period of time. The formalin pain model is a translational animal model for chronic nociplastic pain (Vanini G., Sleep 2016; 39(1): 133-42), including fibromyalgia, phantom limb pain or complex regional pain syndrome. In the formalin pain model, in addition to experiencing extra pain in the formalin-injected paw, the animal experiences increased pain perception (i.e., hyperalgesia) in extremities not injected with formalin (e.g., the contra-lateral hind paw compared to the one injected with formalin). The pain perception was measured in the contra-lateral paw to assess the potential benefit of psychedelics in nociplastic pain disorders. […]
The second pain measurement was based on the Hot Plate Assay (HPA), which measures the withdrawal latency at temperatures that register a painful response (i.e., thermal hyperalgesia). […] Once heated, each animal was placed in cylindrical tube on the hot plate and the latency to lick a hind paw or observed overt escape behavior (e.g., attempt to jump out of cylinder) was recorded (Ingram et al., Neruopsychopharmacology 2007; 32(3):600-6; Gunn et al., J Pain 2011; 12(2):222-7; Hestehave et al., Lab Anim 2016; 51(3):264-72). […]

rats [6] = test: Von Frey assay (VFA) withdrawal threshold in formalin-induced rat pain model; assay type: in vivo; settings: contra-lateral paw; single 10 mg/kg IV administration
Text: Chronic pain in rats was induced by injection of formalin into the hind paw. The rats subsequently were intravenously administered psilocybin, and assessed for changes in pain perception over an extended period of time. The formalin pain model is a translational animal model for chronic nociplastic pain (Vanini G., Sleep 2016; 39(1): 133-42), including fibromyalgia, phantom limb pain or complex regional pain syndrome. In the formalin pain model, in addition to experiencing extra pain in the formalin-injected paw, the animal experiences increased pain perception (i.e., hyperalgesia) in extremities not injected with formalin (e.g., the contra-lateral hind paw compared to the one injected with formalin). The pain perception was measured in the contra-lateral paw to assess the potential benefit of psychedelics in nociplastic pain disorders. Reduction in pain perception and the duration of pain reduction were examined following intravenous bolus administration of 10 mg/kg psilocybin, administered over 3 minutes.
Two types of pain perception were measured. First, the Von Frey assay (VFA) was used to measure pain due to pressure exerted on the extremity (i.e., mechanical allodynia). Specifically. […] The minimum amount of force required to evoke a paw withdrawal response in each trial was determined to be the minimum withdrawal threshold for that animal trial. […]

[7] = plasma psilocin, individual rats, 10 mg/kg psilocin one-hour IV infusion

CN(C)CCc1c[nH]c2cccc(O)c12 [psilocin, 4-hydroxy-N,N-dimethyltryptamine]
Plasma concentration of psilocin ([1]; individual rats, 10 mg/kg psilocin one-hour IV infusion, sampling time 0.25 h): 1031.8 ng/mL and 982.7 ng/mL | Plasma concentration of psilocin ([1]; individual rats, 10 mg/kg psilocin one-hour IV infusion, sampling time 0.5 h): 1731.6 ng/mL and 1489.3 ng/mL | Plasma concentration of psilocin ([1]; individual rats, 10 mg/kg psilocin one-hour IV infusion, sampling time 1 h): 2159.5 ng/mL and 1623.2 ng/mL | Plasma concentration of psilocin ([1]; individual rats, 10 mg/kg psilocin one-hour IV infusion, sampling time 2 h): 965.6 ng/mL and 740.4 ng/mL | Plasma concentration of psilocin ([1]; individual rats, 10 mg/kg psilocin one-hour IV infusion, sampling time 4 h): 249.1 ng/mL and 231.7 ng/mL | Plasma concentration of psilocin ([1]; individual rats, 10 mg/kg psilocin one-hour IV infusion, sampling time 6 h): 80.2 ng/mL and 59.6 ng/mL | Plasma concentration of psilocin ([1]; individual rats, 10 mg/kg psilocin one-hour IV infusion, sampling time 8 h): 22.5 ng/mL and 26.8 ng/mL | Tmax ([1]; male, Sprague Dawley, rat, plasma, iv, 10 mg/kg): 1 h | AUC(0-t) ([1]; male, Sprague Dawley, rat, plasma, iv, 10 mg/kg, plasma psilocin, individual rats, 10 mg/kg psilocin one-hour IV infusion): 3550 ng·h/mL | AUC(0-t) ([1]; male, Sprague Dawley, rat, plasma, iv, 10 mg/kg, plasma psilocin, mean of 3 rats, 10 mg/kg psilocin one-hour IV infusion): 3980 ng·h/mL | Cmax ([1]; male, Sprague Dawley, rat, plasma, iv, 10 mg/kg, Cmax, plasma psilocin, individual rats, 10 mg/kg psilocin one-hour IV infusion): 1610 ng/mL | Cmax ([1]; male, Sprague Dawley, rat, plasma, iv, 10 mg/kg, Cmax, plasma psilocin, mean of 3 rats, 10 mg/kg psilocin one-hour IV infusion): 1800 ng/mL | concentration at 0.25 h ([1]; male, Sprague Dawley, rat, plasma, iv, 10 mg/kg, individual rats, 10 mg/kg psilocin one-hour IV infusion, sampling time 0.25 h): 1070 ng/mL | concentration at 0.5 h ([1]; male, Sprague Dawley, rat, plasma, iv, 10 mg/kg, individual rats, 10 mg/kg psilocin one-hour IV infusion, sampling time 0.5 h): 1510 ng/mL | concentration at 1 h ([1]; male, Sprague Dawley, rat, plasma, iv, 10 mg/kg, individual rats, 10 mg/kg psilocin one-hour IV infusion, sampling time 1 h): 1610 ng/mL | concentration at 2 h ([1]; male, Sprague Dawley, rat, plasma, iv, 10 mg/kg, individual rats, 10 mg/kg psilocin one-hour IV infusion, sampling time 2 h): 714 ng/mL | concentration at 4 h ([1]; male, Sprague Dawley, rat, plasma, iv, 10 mg/kg, individual rats, 10 mg/kg psilocin one-hour IV infusion, sampling time 4 h): 164 ng/mL | concentration at 6 h ([1]; male, Sprague Dawley, rat, plasma, iv, 10 mg/kg, individual rats, 10 mg/kg psilocin one-hour IV infusion, sampling time 6 h): 47.7 ng/mL | concentration at 8 h ([1]; male, Sprague Dawley, rat, plasma, iv, 10 mg/kg, individual rats, 10 mg/kg psilocin one-hour IV infusion, sampling time 8 h): 17.3 ng/mL | concentration at 0.25 h ([1]; male, Sprague Dawley, rat, plasma, iv, 10 mg/kg, mean of 3 rats, 10 mg/kg psilocin one-hour IV infusion, sampling time 0.25 h): 1030 ng/mL | concentration at 0.5 h ([1]; male, Sprague Dawley, rat, plasma, iv, 10 mg/kg, mean of 3 rats, 10 mg/kg psilocin one-hour IV infusion, sampling time 0.5 h): 1580 ng/mL | concentration at 1 h ([1]; male, Sprague Dawley, rat, plasma, iv, 10 mg/kg, mean of 3 rats, 10 mg/kg psilocin one-hour IV infusion, sampling time 1 h): 1800 ng/mL | concentration at 2 h ([1]; male, Sprague Dawley, rat, plasma, iv, 10 mg/kg, mean of 3 rats, 10 mg/kg psilocin one-hour IV infusion, sampling time 2 h): 807 ng/mL | concentration at 4 h ([1]; male, Sprague Dawley, rat, plasma, iv, 10 mg/kg, mean of 3 rats, 10 mg/kg psilocin one-hour IV infusion, sampling time 4 h): 215 ng/mL | concentration at 6 h ([1]; male, Sprague Dawley, rat, plasma, iv, 10 mg/kg, mean of 3 rats, 10 mg/kg psilocin one-hour IV infusion, sampling time 6 h): 62.5 ng/mL | concentration at 8 h ([1]; male, Sprague Dawley, rat, plasma, iv, 10 mg/kg, mean of 3 rats, 10 mg/kg psilocin one-hour IV infusion, sampling time 8 h): 22.2 ng/mL | AUCT [1, 7]: 4656.4 ng·h/mL and 3741.6 ng·h/mL | Cmax [1, 7]: 2159.5 ng/mL and 1623.2 ng/mL | Rats in which head-twitching was observed (rats [2]; 60 minute period after one hour 10 mg/kg IV infusion): 2 of 3 | Time after termination of infusion up to which head twitching was observed (rats [2]): ≤ 16 min

CN(C)CCc1c[nH]c2cccc(OP(=O)(O)O)c12 [psilocybin, [3-(2-dimethylaminoethyl)-1H-indol-4-yl] dihydrogen phosphate]
Time to discontinuation of head twitching response after termination of the infusion (rats [3]): ≤ 30 min | Time to head twitching response after initiation of the infusion (rats [3]; all tested rats): ≤ 5 min | Average peak concentration of psilocin in plasma [4]: 8.2+/−2.8 ng psilocin/ml plasma | Time of peak plasma levels of psilocin [4]: 105 ± 37 min | Duration of improved pain sensitivity response (HPA withdrawal latency) compared to saline control (rats [5]): at least 4 weeks | Time after termination of infusion up to which head twitching was observed (rats [2]): up to 50 minutes | Duration of statistically significant increase in VFA withdrawal threshold (rats [6]): 3 weeks
